Marks after values point to notes of the source that are not given here.
Columns and labels:
rat cortex = assay: Effect of test compound on oxygen tension (pO₂) of rat cortex; assay type: in vivo; conditions: for Increase in pO₂ (torr): normoxic cortex, normal anaesthetized rats; for Ischaemic Cortex Increase in pO₂ (torr) (mean ± sem): both carotid arteries ligated 3 weeks previously, N=5
Description: 2. Effect of test compound on oxygen tension (pO₂) of rat cortex.
Male rats (280-350g) were anaesthetized with sodium-thio pentone (100 mg/kg i.p.). The arterial blood pressure was recorded from a femoral artery.
The cranium was opened with a trephine (0.6 mm) above the praecentral cortex. The dura mata was carefully removed and a multiwire oxygen sensitive electrode was placed on the cortex.
The electrode current was continuously recorded.
After a stabilisation period the test compound was administered. The change in the cortical pO₂, produced by compound administration, was calculated for each animal.
These measurements were performed in normal animals and in animals in which both carotid arteries had been ligated 3 weeks previously in order to induce cortical ischaemia.

[1] = test system: Triethyltin-induced cerebral oedema; assay: Triethyltin-induced cerebral oedema in the rat; assay type: in vivo; conditions: twice daily for 5 days, Wistar rats intoxicated with triethyltin chloride 2 mg/kg
Description: 1. Triethyltin-induced cerebral oedema in the rat.
The cerebral oedema is induced by oral administrations repeated for 5 consecutive days - one administration per day - of triethyltin chloride at a dose of 2 mg/kg. The test compound is also administered orally twice daily as aqueous solution or suspension (1ml/100g body-weight); these administrations are given during the 5 days of intoxication with tin. Three groups of 10 male specific pathogen-free (SPF) Wistar rats of 280 ± 10g body-weight are used: • 1 control group • 1 group intoxicated with triethyltin • 1 group intoxicated with triethyltin and treated with the studied compound. The rats are killed on the evening of the fifth day; the brain is removed, weighed fresh and after desiccation to constant weight and the water content of each brain is calculated: [H₂O] = fresh weight - dry weight. [formula] The following are then calculated: • the mean water content (M ± Sm%) of each group; • the protection index P due to the administered compound: [formula] The significance is evaluated by the Mann-Whitney test.

| Compound | Increase in pO₂ (torr) (rat cortex; 0.4 mg/kg i.v., N=3) | Ischaemic Cortex Increase in pO₂ (torr) (mean ± sem) (rat cortex; 0.5 mg/kg i.v.) | Increase in pO₂ (torr) (rat cortex; 0.8 mg/kg i.v., N=2) | Ischaemic Cortex Increase in pO₂ (torr) (mean ± sem) (rat cortex; 1.0 mg/kg i.v.) | effect on pO₂ in the rat normoxic and chronic ischaemic cortex (rat cortex; summary in words of Table 2) | % inhibition of cerebral oedema formation ([1]; 2x2.5 mg/kg p.o.) | % inhibition of cerebral oedema formation ([1]; 2x12.5 mg/kg p.o.) | % inhibition of cerebral oedema formation ([1]; dosage cell empty in this row, p.o.) | % inhibition of cerebral oedema formation ([1]; 2x1 mg/kg p.o.) |
| --- | --- | --- | --- | --- | --- | --- | --- | --- | --- |
| CC1(C)Nc2ccc(C#N)cc2[C@@H](N2CCCC2=O)[C@@H]1O (relative stereo) [Compound A, trans-2,2-dimethyl-6-cyano-4-(2-oxo-1-pyrrolidinyl)-1,2,3,4-tetrahydroquinolin-3-ol] | 2.1 ± 2.0 | 0.9 ± 0.9 | 4.1 ± 0.9 | 1.9 ± 1.9 | increases pO₂ | 30* % | – | – | – |
| CC1(C)C=C(N2CCCC2=O)c2cc(Br)ccc2N1 [Compound B, 6-Bromo-2,2-dimethyl-4-(2-oxo-1-pyrrolidinyl)-1,2-dihydroquinoline] | – | – | – | – | – | – | 41.4** % | 100** % | – |
| CC1(C)C=C(N2CCCC2=O)c2cc(C#N)ccc2N1 [Compound C, 6-Cyano-2,2-dimethyl-4-(2-oxo-1-pyrrolidinyl)-1,2-dihydroquinoline] | – | – | – | – | – | – | 100** % | – | 53.3** % |

Source: patent publication EP0214743B1, “Use of quinoline derivatives in the manufacture of medicaments for the treatment of cerebrovascular disorders and cerebral senility” (BEECHAM GROUP PLC, priority 1985, dated 1987)
